Active and inactive are the calls of the source. How the calls were made is not given here.
System: CCRIS mutagenicity, Ames/micronucleus/aberration tests
Assay: CCRIS mutagenicity studies
Conditions: Test System: AMES SALMONELLA TYPHIMURIUM, Metabolic Activation: RAT, LIVER

c1cc(-c2ccncc2)ccn1
mutagenic call (Strain/Indicator: TA97, S-9, PHENOBARBITAL, Method: STANDARD PLATE): inactive; negative
mutagenic call (Strain/Indicator: TA97, S-9, SODIUM PHENOBARBITAL, Method: PREINCUBATION): active; positive
mutagenic call (Strain/Indicator: TA98, S-9, PHENOBARBITAL, Method: STANDARD PLATE): inactive; negative
mutagenic call (Strain/Indicator: TA100, S-9, PHENOBARBITAL, Method: STANDARD PLATE): inactive; negative
mutagenic call (Strain/Indicator: TA100, S-9, SODIUM PHENOBARBITAL, Method: PREINCUBATION): active; positive
mutagenic call (Strain/Indicator: TA1535, S-9, PHENOBARBITAL, Method: STANDARD PLATE): inactive; negative
mutagenic call (Strain/Indicator: TA1537, S-9, PHENOBARBITAL, Method: STANDARD PLATE): active; positive
mutagenic call (Strain/Indicator: TA1538, S-9, PHENOBARBITAL, Method: STANDARD PLATE): inactive; negative

— PubChem BioAssay AID1259407 (Chemical Carcinogenesis Research Information System (CCRIS), 2018)
